From patent publication US20100056522A1, “INTRAOCULAR PRESSURE-LOWERING AGENT COMPRISING COMPOUND HAVING HISTONE DEACETYLASE INHIBITOR EFFECT AS ACTIVE INGREDIENT” (Santen Pharmaceutical Co., Ltd., priority 2007, published 2010)

Tests used:
[1] = system: HDAC (HeLa nuclear extract); assay: Test for evaluation of an HDAC inhibitory effect (HDAC Fluorimetric Assay/Drug Discovery Kit, Biomol); format: biochemical; details: final concentration of test compound 30 μM, rates of more than 100% are shown as 100%
Protocol: Using HDAC Fluorimetric Assay/Drug Discovery Kit (manufactured by Biomol), an HDAC inhibitory effect of the present compounds was measured according to the protocol included with the kit. The kit contains Buffer, HeLa nuclear extract (includes an HDAC), Substrate, Developer and Trichostatin A (an HDAC inhibitor).
A test compound was dissolved in dimethyl sulfoxide, whereby a 2 mg/mL solution was prepared. Then, the resulting solution was diluted with Buffer containing 5% dimethyl sulfoxide, whereby a 150 μM test compound solution was prepared.
1) To a 384-well culture plate, the test compound solution was added in an amount of 2 μL per well.
2) HeLa nuclear extract was diluted 30-fold with Buffer. The resulting solution was added in an amount of 3 μL per well and then, incubation was performed at 37° C. for 2 hours.
3) Substrate was diluted 500-fold with Buffer. The resulting solution was added in an amount of 5 μL per well (the final concentration of the test compound was 30 μM) and then, incubation was performed at 37° C. for 10 minutes.
4) Developer was diluted 20-fold with Buffer and Trichostatin A (2 μM) was added to it. The resulting solution was added in an amount of 10 μL per well and then, incubation was performed at room temperature for 15 minutes.
5) The fluorescence intensity of each well was measured using multilabel counter ARVO (manufactured by Wallac) with excitation at 360 nm and emission at 460 nm.
6) A control data was obtained from the same experiment except that Buffer containing 5% DMSO was added instead of the test compound solution as the above-mentioned procedure from 1) to 5).
7) A blank data was obtained from the same experiment except that Buffer containing 5% DMSO was added instead of the test compound solution and that Buffer was added instead of Hela nuclear extract as the above-mentioned procedure from 1) to 5).
Enzyme inhibitory rate (%) was calculated using the following equation.
(Enzyme Inhibitory Rate(%))=100×[1−{(Fluorescence Intensity of Test Compound Solution)−(Florescence Intensity of Blank)}/{(Florescence Intensity of Control)−(Florescence Intensity of Blank)}]

[2] = system: TM-1 cells (human trabecular meshwork cell line); assay: Test for evaluation of effect of morphological change on trabecular meshwork cells (cell shape index); format: cell-based; details: 10 μM, 24 hours, control CSI 0.679, lower CSI indicates greater morphological change
Protocol: As a method for evaluating a cellular morphological change, an evaluation system using the cell shape index (hereinafter referred to as “CSI”) as an index has been reported in The Journal of Clinical Investigation, 103, 1141-1150 (1999). Therefore, according to the method described in the above document, an effect of morphological change by the present compounds on trabecular meshwork cells was evaluated.
A human trabecular meshwork cell line (hereinafter referred to as “TM-1 cells”) reported in Investigative Opthalmology & Visual Science, 43, 151-161 (2002) was used.
Culture medium 1: A reagent was prepared by adding fetal bovine serum (10%), L-glutamine (2 mM), amphotericin B (2.5 μg/mL), and gentamicin (25 μg/mL) to Dulbecco's Modified Eagle Medium (hereinafter referred to as “D-MEM”).
Culture medium 2: Fetal bovine serum (3%), L-glutamine (2 mM), amphotericin B (2.5 μg/mL), and gentamicin (25 μg/mL) were added to D-MEM.
Cell staining liquid: A mixed liquid of Calcein-AM (16 μM) and Hoechst 33342 (40 μM) was prepared by diluting a Calcein-AM solution (cytoplasmic staining reagent, manufactured by Dojindo Laboratories) and a Hoechst 33342 solution (nuclear staining reagent, manufactured by Dojindo Laboratories) with D-MEM containing L-glutamine (2 mM), amphotericin B (2.5 μg/mL), and gentamicin (25 μg/mL).
TM-1 cells subcultured at 37° C. in a 8% carbon dioxide gas atmosphere were treated with a trypsin/EDTA solution (0.05% trypsin and 0.53 mM tetrasodium ethylenediaminetetraacetate) at 24 hours before performing a drug treatment mentioned below and seeded on a 96-well culture plate. The culture medium 1 was used for the subculture of the cells. The culture medium 2 was used for the cell culture after seeding the cells on the plate.
A test compound was dissolved in dimethyl sulfoxide, whereby a 5 mM solution was prepared. Then, the resulting solution was diluted with the culture medium 2, whereby a 200 μM test compound solution was prepared.
It has been reported that Y-27632 which is a Rho kinase inhibitor induces a morphological change in trabecular meshwork cells in Investigative Opthalmology & Visual Science, 42, 137-144 (2001). Therefore, Y-27632 (produced according to the method described in WO 90/05723) was used as a positive control, and dissolved in dimethyl sulfoxide in the same manner as the test compound, whereby a 5 mM solution was prepared, and then, the resulting solution was diluted with the culture medium 2, whereby a 200 μM positive control compound solution was prepared.
1) To a 96-well culture plate, a solution of TM-1 cells adjusted to a cell density of […] was added in an amount of 95 μL (1.5×10^4 cells) per well.
2) Incubation was performed at 37° C. in a 8% carbon dioxide gas atmosphere for 24 hours.
3) The test compound solution or positive control compound solution was added in an amount of 5 μL per well (the final concentration of the test compound or positive control compound was 10 μM). As a control, the culture medium 2 containing dimethyl sulfoxide (4%) was added in an amount of 5 μL per well.
4) Incubation was performed at 37° C. in a 8% carbon dioxide gas atmosphere for 24 hours.
5) The cell staining liquid was added in an amount of 10 μL per well.
6) Incubation was performed at 37° C. in a 8% carbon dioxide gas atmosphere for 1 hour to stain the cells.
7) A 37% formaldehyde solution was added in an amount of 10 μL per well.
8) Incubation was performed at room temperature for 1 hour to fix the cells.
9) Washing with phosphate-buffered saline was performed.
10) Using Array Scan Vti HCS reader (manufactured by Cellomics), images of stained cells magnified with a 20-fold objective lens were captured in 80 fields (10 fields×8 wells) per test compound addition group.
11) CSI was calculated for each cell and an average value was obtained for each test compound addition group.
CSI was calculated using the following equation.
CSI=4π×(Cell Area)/(Cell Perimeter)^2

Row | Enzyme Inhibitory Rate (%) [1] [%] | Structure (SMILES) | CSI [2]
1 | 99 | Nc1ccccc1NC(=O)c1ccc(CN(CCO)C(=O)Nc2ccc3c(c2)OCCO3)cn1 [Compound 2-10, N-(2-Aminophenyl)-5-[3-(2,3-dihydrobenzo[1,4]dioxin-6-yl)-1-(2-hydroxyethyl)ureidomethyl]pyridine-2-carboxylic acid amide] | 0.582
2 | 97 | CN(C)CCN(Cc1ccc(C(=O)Nc2ccccc2N)nc1)C(=O)Nc1ccsc1 [Compound 1-56, N-(2-Aminophenyl)-5-[1-(2-dimethylaminoethyl)-3-(thiophen-3-yl)ureidomethyl]pyridine-2-carboxylic acid amide] | 0.526
3 | 98 | Nc1ccccc1NC(=O)c1ccc(CN(CCCN2CCCC2)C(=O)Nc2cccnc2)cn1 [Compound 1-58, N-(2-Aminophenyl)-5-[3-(pyridin-3-yl)-1-[3-(pyrrolidin-1-yl)propyl]ureidomethyl]pyridine-2-carboxylic acid amide] | 0.518
4 | 98 | CCN(CC)CCCN(Cc1ccc(C(=O)Nc2ccccc2N)nc1)C(=O)Nc1ccc(F)c(F)c1 [Compound 1-46, N-(2-Aminophenyl)-5-[1-(3-diethylaminopropyl)-3-(3,4-difluorophenyl)ureidomethyl]pyridine-2-carboxylic acid amide] | 0.547
5 | 99 | CN1CCN(CCCN(Cc2ccc(C(=O)Nc3ccccc3N)nc2)C(=O)Nc2ccc3c(c2)OCCO3)CC1 [Compound 1-68, N-(2-Aminophenyl)-5-[3-(2,3-dihydrobenzo[1,4]dioxin-6-yl)-1-[3-(4-methylpiperazin-1-yl)propyl]ureidomethyl]pyridine-2-carboxylic acid amide] | 0.502
6 | 91 | Nc1ccccc1NC(=O)c1ccc(CN(CCCCCN2CCOCC2)C(=O)NC2CCCC2)cn1 [Compound 1-141, N-(2-Aminophenyl)-5-[3-cyclopentyl-1-[5-(morpholin-4-yl)pentyl]ureidomethyl]pyridine-2-carboxylic acid amide] | 0.515
7 | 98 | CCN(CC)CCCN(Cc1ccc(C(=O)Nc2ccccc2N)nc1)C(=O)Nc1ccc(F)c([N+](=O)[O-])c1 [Compound 1-51, N-(2-Aminophenyl)-5-[1-(3-diethylaminopropyl)-3-(4-fluoro-3-nitrophenyl)ureidomethyl]pyridine-2-carboxylic acid amide] | 0.518
8 | 98 | CN(C)CCN(Cc1ccc(C(=O)Nc2ccccc2N)nc1)C(=O)Nc1cccc(F)c1 [Compound 1-55, N-(2-Aminophenyl)-5-[1-(2-dimethylaminoethyl)-3-(3-fluorophenyl)ureidomethyl]pyridine-2-carboxylic acid amide] | 0.525
9 | 100 | CCN(CC)c1ccc(NC(=O)N(CCCN(C)C)Cc2ccc(C(=O)Nc3ccccc3N)nc2)cc1 [Compound 2-3, N-(2-Aminophenyl)-5-[3-(4-diethylaminophenyl)-1-(3-dimethylaminopropyl)ureidomethy]pyridine-2-carboxylic acid amide] | 0.550

Further lines, the compound ahead of its results:

Row | Structure (SMILES) | Enzyme Inhibitory Rate (%) [1] [%] | CSI [2]
10 | CN(C)CCCN(Cc1ccc(C(=O)Nc2ccccc2N)nc1)C(=O)Nc1ccc(C#N)cc1 [Compound 1-20, N-(2-Aminophenyl)-5-[3-(4-cyanophenyl)-1-(3-dimethylaminopropyl)ureidomethyl]pyridine-2-carboxylic acid amide] | 99 | 0.516
11 | CN(C)CCCN(Cc1ccc(C(=O)Nc2ccccc2N)nc1)C(=O)Nc1cccc(F)c1 [Compound 1-10, N-(2-Aminophenyl)-5-[1-(3-dimethylaminopropyl)-3-(3-fluorophenyl)ureidomethyl]pyridine-2-carboxylic acid amide] | 98 | 0.528
12 | CN(C)CCCN(Cc1ccc(C(=O)Nc2ccccc2N)nc1)C(=O)Nc1nc2ccc(F)cc2s1 [Compound 1-44, N-(2-Aminophenyl)-5-[1-(3-dimethylaminopropyl)-3-(6-fluoro-1,3-benzothiazol-2-yl)ureidomethyl]pyridine-2-carboxylic acid amide] | 98 | 0.554
13 | CCOC(=O)CCN(Cc1ccc(C(=O)Nc2ccccc2N)nc1)C(=O)Nc1ccc(N(C)C)cc1 [Compound 1-27, N-(2-Aminophenyl)-5-[3-(4-dimethylaminophenyl)-1-(2-ethoxycarbonylethyl)ureidomethyl]pyridine-2-carboxylic acid amide] | 97 | 0.624
14 | CN(C)CCCN(Cc1ccc(C(=O)Nc2ccccc2N)nc1)C(=O)Nc1ccc(OC(F)(F)F)cc1 [Compound 1-21, N-(2-Aminophenyl)-5-[1-(3-dimethylaminopropyl)-3-(4-trifluoromethoxyphenyl)ureidomethyl]pyridine-2-carboxylic acid amide] | 98 | 0.575
15 | O=C(/C=C/c1cccc(C(=O)NO)c1)NO [CBHA, N-Hydroxy-3-[3-hydroxyamino-3-oxo-1-propenyl]benzamide, reference compound] | 99 | 0.545
16 | Cc1ccc(NC(=O)N(CCCN(C)C)Cc2ccc(C(=O)Nc3ccccc3N)nc2)cc1F [Compound 1-13, N-(2-Aminophenyl)-5-[1-(3-dimethylaminopropyl)-3-(3-fluoro-4-methylphenyl)ureidomethyl]pyridine-2-carboxylic acid amide] | 100 | 0.545
17 | CN(C)CCCN(Cc1ccc(C(=O)Nc2ccccc2N)nc1)C(=O)Nc1nccs1 [Compound 1-41, N-(2-Aminophenyl)-5-[1-(3-dimethylaminopropyl)-3-(1,3-thiazol-2-yl)ureidomethyl]pyridine-2-carboxylic acid amide] | 96 | 0.499
18 | C[C@@H](N)[C@H]1CC[C@H](C(=O)Nc2ccncc2)CC1 [Compound Y-27632, reference compound] | – | 0.543
